Patent US6825178B1, “Methods and products for treating pseudomonas infection” (The Brigham and Women's Hospital, Inc., priority 1996, dated 2004)
Marks after values point to notes of the source that are not given here.

System: A549 cells
Assay: Inhibition of internalization of P. aeruginosa strain PAO1 into A549 cells
Format: cell-based, human
Conditions: 1 nM peptide
Protocol: WI-38 (human diploid lung cell line, ATCC. no. CCL-75) and A549 cells (human lung carcinoma cells, ATCC no. CCL-185) were obtained from the ATCC and grown according to their instructions.
Bacterial ingestion assay. Cells were released from monolayers in tissue culture flasks by 5 min. of incubation with trypsin-versene mixture (BioWhitaker, Walkersville, Md.), washed, counted and seeded into 96-well tissue culture plates at 10^5 cells/well in supplemented F-12 medium and incubated at 37° C. in 5% CO2. Fresh cultures of P. aeruginosa grown overnight at 37° C. on a tryptic soy agar plate were suspended in supplemented F-12 medium to prepare the bacterial inoculum. Then 10^6 colony forming units (cfu) of the bacterial inoculum were added per well of 10^5 epithelial cells. […] Three to 9 replicates were obtained per point, and analyzed using analysis of variance (ANOVA) and the Fisher PLSD statistic to determine pairwise differences.
Inhibition of ingestion in the presence of membranes isolated from C127 cells, monoclonal antibodies to extracellular domains of CFTR, or synthetic peptides corresponding to the first or fourth extracellular domains of CFTR was evaluated by adding these materials to the bacteria prior to adding them directly into wells for evaluation of bacterial uptake. […]

| Sequence | Mean cfu (standard deviation) of P. aeruginosa internalized |
| --- | --- |
| GRIIASYDPDNKEER (listed as Homo Sapiens) [First domain] | 3.2833 × 10^4 (4.32 × 10^3)^a cfu |
| LWLLGNTPLQDKGNSTHSRNNSYAVIITSTS (listed as Homo Sapiens) [Fourth domain, reference compound] | 8.7333 × 10^4 (1.1506 × 10^4) cfu |
